Assay results from ChEMBL document CHEMBL4507293 (2021).

Columns and labels:
[1] = biological target: Homeodomain-interacting protein kinase 3 (Homo sapiens) (UniProt Q9H422); conditions: Compound concentration 100.0 nM
[2] = biological target: cAMP-dependent protein kinase catalytic subunit beta (Homo sapiens) (UniProt P22694); conditions: Compound concentration 100.0 nM
[3] = biological target: Ephrin type-A receptor 6 (Homo sapiens) (UniProt Q9UF33); conditions: Compound concentration 100.0 nM
[4] = biological target: Insulin-like growth factor 1 receptor (Homo sapiens) (UniProt P08069); conditions: Compound concentration 100.0 nM
[5] = test system: Receptor-type tyrosine-protein kinase FLT3 (Homo sapiens), P36888 [UNDEFINED MUTATION]; conditions: Compound concentration 100.0 nM
[6] = biological target: Vascular endothelial growth factor receptor 2 (Homo sapiens) (UniProt P35968); conditions: Compound concentration 100.0 nM
[7] = biological target: Ephrin type-A receptor 7 (Homo sapiens) (UniProt Q15375); conditions: Compound concentration 100.0 nM
[8] = biological target: Serine/threonine-protein kinase tousled-like 1 (Homo sapiens) (UniProt Q9UKI8); conditions: Compound concentration 100.0 nM
[9] = biological target: Death-associated protein kinase 3 (Homo sapiens) (UniProt O43293); conditions: Compound concentration 100.0 nM
[10] = biological target: Receptor tyrosine-protein kinase erbB-3 (Homo sapiens) (UniProt P21860); conditions: Compound concentration 100.0 nM
[11] = biological target: Mitogen-activated protein kinase 8 (Homo sapiens) (UniProt P45983); conditions: Compound concentration 100.0 nM
[12] = biological target: Serine/threonine-protein kinase 36 (Homo sapiens) (UniProt Q9NRP7); conditions: Compound concentration 100.0 nM
[13] = biological target: Mitogen-activated protein kinase kinase kinase 9 (Homo sapiens) (UniProt P80192); conditions: Compound concentration 100.0 nM
[14] = biological target: 5-hydroxytryptamine receptor 1D (Homo sapiens) (UniProt P28221); conditions: Compound concentration 10.0 uM
[15] = biological target: Cyclin-dependent kinase 7 (Homo sapiens) (UniProt P50613); conditions: Compound concentration 100.0 nM
[16] = biological target: G protein-coupled receptor kinase 4 (Homo sapiens) (UniProt P32298); conditions: Compound concentration 100.0 nM
[17] = biological target: Dual specificity tyrosine-phosphorylation-regulated kinase 1A (Homo sapiens) (UniProt Q13627); conditions: Compound concentration 100.0 nM
[18] = biological target: Muscarinic acetylcholine receptor M3 (Homo sapiens) (UniProt P20309); conditions: Compound concentration 10.0 uM
[19] = test system: Tyrosine-protein kinase ABL1 (Homo sapiens), P00519 [F317L]; conditions: Compound concentration 100.0 nM
[20] = biological target: Dual specificity mitogen-activated protein kinase kinase 5 (Homo sapiens) (UniProt Q13163); conditions: Compound concentration 100.0 nM
[21] = biological target: Ribosomal protein S6 kinase alpha-5 (Homo sapiens) (UniProt O75582); conditions: Compound concentration 100.0 nM
[22] = biological target: Serine/threonine-protein kinase D2 (Homo sapiens) (UniProt Q9BZL6); conditions: Compound concentration 100.0 nM
[23] = biological target: Tyrosine-protein kinase Lyn (Homo sapiens) (UniProt P07948); conditions: Compound concentration 100.0 nM
[24] = biological target: Dual specificity tyrosine-phosphorylation-regulated kinase 2 (Homo sapiens) (UniProt Q92630); conditions: Compound concentration 100.0 nM
[25] = biological target: cGMP-dependent protein kinase 1 (Homo sapiens) (UniProt Q13976); conditions: Compound concentration 100.0 nM
[26] = biological target: cAMP-dependent protein kinase catalytic subunit alpha (Homo sapiens) (UniProt P17612); conditions: Compound concentration 100.0 nM
[27] = biological target: Mitogen-activated protein kinase kinase kinase 12 (Homo sapiens) (UniProt Q12852); conditions: Compound concentration 100.0 nM
[28] = biological target: Cyclin-dependent kinase 13 (Homo sapiens) (UniProt Q14004); conditions: Compound concentration 100.0 nM
[29] = biological target: Mitogen-activated protein kinase kinase kinase kinase 2 (Homo sapiens) (UniProt Q12851); conditions: Compound concentration 100.0 nM
[30] = biological target: Serine/threonine-protein kinase BRSK2 (Homo sapiens) (UniProt Q8IWQ3); conditions: Compound concentration 100.0 nM
[31] = test system: Epidermal growth factor receptor (Homo sapiens), P00533 [G719C]; conditions: Compound concentration 100.0 nM
[32] = test system: Mast/stem cell growth factor receptor Kit (Homo sapiens), P10721 [V559D,V654A]; conditions: Compound concentration 100.0 nM
[33] = biological target: 5'-AMP-activated protein kinase catalytic subunit alpha-2 (Homo sapiens) (UniProt P54646); conditions: Compound concentration 100.0 nM
[34] = biological target: Serine/threonine-protein kinase PAK 2 (Homo sapiens) (UniProt Q13177); conditions: Compound concentration 100.0 nM
[35] = biological target: Serine/threonine-protein kinase 4 (Homo sapiens) (UniProt Q13043); conditions: Compound concentration 100.0 nM
[36] = biological target: Cyclin-dependent kinase 19 (Homo sapiens) (UniProt Q9BWU1); conditions: Compound concentration 100.0 nM
[37] = biological target: Serine/threonine-protein kinase 17A (Homo sapiens) (UniProt Q9UEE5); conditions: Compound concentration 100.0 nM
[38] = test system: Leucine-rich repeat serine/threonine-protein kinase 2 (Homo sapiens), Q5S007 [G2019S]; conditions: Compound concentration 100.0 nM
[39] = test system: Mast/stem cell growth factor receptor Kit (Homo sapiens), P10721 [V559D]; conditions: Compound concentration 100.0 nM
[40] = biological target: Calcium/calmodulin-dependent protein kinase type IV (Homo sapiens) (UniProt Q16566); conditions: Compound concentration 100.0 nM
[41] = biological target: Kappa-type opioid receptor (Homo sapiens) (UniProt P41145); conditions: Compound concentration 10.0 uM
[42] = biological target: Insulin receptor (Homo sapiens) (UniProt P06213); conditions: Compound concentration 100.0 nM
[43] = test system: ALK tyrosine kinase receptor (Homo sapiens), Q9UM73 [C1156Y]; conditions: Compound concentration 100.0 nM
[44] = biological target: Membrane-associated tyrosine- and threonine-specific cdc2-inhibitory kinase (Homo sapiens) (UniProt Q99640); conditions: Compound concentration 100.0 nM
[45] = biological target: Tyrosine-protein kinase JAK3 (Homo sapiens) (UniProt P52333); conditions: Compound concentration 100.0 nM

Ephrin type-A receptor 7 (Homo sapiens), sequence (Q15375 28-998 limits assumed): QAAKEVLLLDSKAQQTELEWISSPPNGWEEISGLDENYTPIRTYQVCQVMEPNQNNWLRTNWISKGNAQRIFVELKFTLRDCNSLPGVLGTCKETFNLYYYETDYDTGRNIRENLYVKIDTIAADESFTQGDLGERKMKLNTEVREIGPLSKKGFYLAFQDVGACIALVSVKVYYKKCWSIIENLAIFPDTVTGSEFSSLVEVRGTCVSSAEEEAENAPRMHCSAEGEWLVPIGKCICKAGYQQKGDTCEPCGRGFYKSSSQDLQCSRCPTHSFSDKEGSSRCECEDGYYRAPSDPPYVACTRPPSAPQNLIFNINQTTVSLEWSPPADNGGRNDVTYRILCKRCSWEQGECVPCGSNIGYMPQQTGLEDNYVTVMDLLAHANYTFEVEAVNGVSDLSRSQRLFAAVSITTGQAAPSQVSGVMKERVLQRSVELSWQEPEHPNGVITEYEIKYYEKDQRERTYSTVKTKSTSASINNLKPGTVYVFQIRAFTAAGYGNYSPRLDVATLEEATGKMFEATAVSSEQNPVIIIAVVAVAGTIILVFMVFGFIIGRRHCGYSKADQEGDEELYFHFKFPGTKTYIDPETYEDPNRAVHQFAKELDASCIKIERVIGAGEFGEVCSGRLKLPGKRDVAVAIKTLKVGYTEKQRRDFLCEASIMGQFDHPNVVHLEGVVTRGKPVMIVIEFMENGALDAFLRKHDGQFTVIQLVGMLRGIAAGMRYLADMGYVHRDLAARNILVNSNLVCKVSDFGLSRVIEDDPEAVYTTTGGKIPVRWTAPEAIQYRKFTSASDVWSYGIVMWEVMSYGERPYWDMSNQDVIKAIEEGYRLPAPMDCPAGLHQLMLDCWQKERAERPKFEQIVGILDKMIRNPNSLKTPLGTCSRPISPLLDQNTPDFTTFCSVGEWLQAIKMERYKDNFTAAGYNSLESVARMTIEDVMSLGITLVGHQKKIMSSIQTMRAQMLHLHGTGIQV
Membrane-associated tyrosine- and threonine-specific cdc2-inhibitory kinase (Homo sapiens), sequence (Q99640 whole entry): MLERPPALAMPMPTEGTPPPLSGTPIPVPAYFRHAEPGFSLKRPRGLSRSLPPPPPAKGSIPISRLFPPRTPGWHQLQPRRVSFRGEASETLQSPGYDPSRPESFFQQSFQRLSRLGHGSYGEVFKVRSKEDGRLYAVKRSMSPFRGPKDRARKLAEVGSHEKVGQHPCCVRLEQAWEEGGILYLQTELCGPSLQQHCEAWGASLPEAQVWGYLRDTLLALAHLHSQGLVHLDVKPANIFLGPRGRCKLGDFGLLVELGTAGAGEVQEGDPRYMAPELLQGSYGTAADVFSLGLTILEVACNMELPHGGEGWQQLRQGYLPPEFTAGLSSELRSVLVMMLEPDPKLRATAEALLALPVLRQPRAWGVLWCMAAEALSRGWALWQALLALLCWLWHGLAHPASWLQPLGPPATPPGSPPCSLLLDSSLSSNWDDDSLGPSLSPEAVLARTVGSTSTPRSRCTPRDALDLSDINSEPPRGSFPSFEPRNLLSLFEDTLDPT
Death-associated protein kinase 3 (Homo sapiens), sequence (O43293 whole entry, looked up): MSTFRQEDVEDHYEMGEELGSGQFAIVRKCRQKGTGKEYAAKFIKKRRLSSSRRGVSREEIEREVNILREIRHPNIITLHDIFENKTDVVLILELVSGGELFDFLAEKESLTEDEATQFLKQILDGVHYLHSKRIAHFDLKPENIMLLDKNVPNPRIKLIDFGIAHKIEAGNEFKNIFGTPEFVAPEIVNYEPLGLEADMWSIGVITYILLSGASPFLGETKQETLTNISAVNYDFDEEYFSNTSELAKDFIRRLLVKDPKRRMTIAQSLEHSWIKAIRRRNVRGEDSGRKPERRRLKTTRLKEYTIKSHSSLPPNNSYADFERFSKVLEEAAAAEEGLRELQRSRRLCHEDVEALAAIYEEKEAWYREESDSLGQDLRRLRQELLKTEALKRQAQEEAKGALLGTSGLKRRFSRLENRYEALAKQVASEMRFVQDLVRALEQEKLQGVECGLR
ALK tyrosine kinase receptor (Homo sapiens), Q9UM73 [C1156Y], sequence (Q9UM73 whole entry C1156Y, looked up): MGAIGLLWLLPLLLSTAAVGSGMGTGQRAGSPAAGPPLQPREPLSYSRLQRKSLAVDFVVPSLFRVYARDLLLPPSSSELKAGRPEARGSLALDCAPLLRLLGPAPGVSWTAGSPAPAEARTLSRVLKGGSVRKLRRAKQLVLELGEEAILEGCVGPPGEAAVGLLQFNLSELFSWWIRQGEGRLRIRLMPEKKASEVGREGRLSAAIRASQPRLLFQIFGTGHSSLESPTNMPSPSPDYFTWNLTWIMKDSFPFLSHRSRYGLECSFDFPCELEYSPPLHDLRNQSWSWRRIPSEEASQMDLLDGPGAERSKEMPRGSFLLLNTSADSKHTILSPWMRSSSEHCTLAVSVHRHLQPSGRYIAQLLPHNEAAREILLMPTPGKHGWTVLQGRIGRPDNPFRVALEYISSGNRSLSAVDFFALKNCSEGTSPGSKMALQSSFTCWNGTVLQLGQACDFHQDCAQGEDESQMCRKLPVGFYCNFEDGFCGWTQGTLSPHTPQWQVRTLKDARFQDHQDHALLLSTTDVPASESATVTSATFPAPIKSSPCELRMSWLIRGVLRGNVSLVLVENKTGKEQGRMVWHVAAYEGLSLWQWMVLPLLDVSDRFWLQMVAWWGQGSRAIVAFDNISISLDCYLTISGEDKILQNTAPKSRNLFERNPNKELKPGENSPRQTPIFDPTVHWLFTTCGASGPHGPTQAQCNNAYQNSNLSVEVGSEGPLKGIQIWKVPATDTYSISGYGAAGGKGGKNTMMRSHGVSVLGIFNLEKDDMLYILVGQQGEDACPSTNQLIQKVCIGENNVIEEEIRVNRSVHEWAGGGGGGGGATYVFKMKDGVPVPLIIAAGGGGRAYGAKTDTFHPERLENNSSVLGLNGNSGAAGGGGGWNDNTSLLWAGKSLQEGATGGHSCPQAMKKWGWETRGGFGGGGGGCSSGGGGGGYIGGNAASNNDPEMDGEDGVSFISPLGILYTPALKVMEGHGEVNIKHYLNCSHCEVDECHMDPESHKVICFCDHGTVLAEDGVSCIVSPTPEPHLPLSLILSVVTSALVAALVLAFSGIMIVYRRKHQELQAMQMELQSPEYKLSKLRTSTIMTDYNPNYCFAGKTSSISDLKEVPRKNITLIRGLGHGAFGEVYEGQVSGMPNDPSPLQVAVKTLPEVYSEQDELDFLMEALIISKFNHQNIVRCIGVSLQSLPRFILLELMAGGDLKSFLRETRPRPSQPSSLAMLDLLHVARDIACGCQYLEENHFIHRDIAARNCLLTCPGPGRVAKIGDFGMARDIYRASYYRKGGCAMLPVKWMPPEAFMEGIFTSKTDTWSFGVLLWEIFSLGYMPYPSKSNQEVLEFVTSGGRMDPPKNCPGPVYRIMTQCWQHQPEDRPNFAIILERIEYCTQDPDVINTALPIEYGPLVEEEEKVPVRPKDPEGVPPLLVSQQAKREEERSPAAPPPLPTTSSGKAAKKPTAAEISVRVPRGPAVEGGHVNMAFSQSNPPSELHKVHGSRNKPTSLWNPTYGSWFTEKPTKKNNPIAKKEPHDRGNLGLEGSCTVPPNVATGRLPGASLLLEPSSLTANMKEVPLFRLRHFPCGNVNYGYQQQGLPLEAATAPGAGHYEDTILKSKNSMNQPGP
Serine/threonine-protein kinase 4 (Homo sapiens), sequence (Q13043 whole entry): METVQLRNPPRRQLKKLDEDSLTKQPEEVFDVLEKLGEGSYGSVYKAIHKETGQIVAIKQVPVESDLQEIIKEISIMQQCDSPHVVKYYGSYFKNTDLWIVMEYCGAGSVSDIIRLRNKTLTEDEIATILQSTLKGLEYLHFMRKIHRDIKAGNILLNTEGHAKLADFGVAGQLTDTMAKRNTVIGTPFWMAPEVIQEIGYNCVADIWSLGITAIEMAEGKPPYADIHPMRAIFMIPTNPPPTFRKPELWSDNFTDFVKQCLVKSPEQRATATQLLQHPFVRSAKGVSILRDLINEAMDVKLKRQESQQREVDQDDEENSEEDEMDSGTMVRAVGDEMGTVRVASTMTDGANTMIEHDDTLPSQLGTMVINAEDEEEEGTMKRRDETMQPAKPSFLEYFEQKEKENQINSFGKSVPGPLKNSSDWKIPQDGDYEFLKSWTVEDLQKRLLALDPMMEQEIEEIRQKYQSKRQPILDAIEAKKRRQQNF
Mitogen-activated protein kinase kinase kinase kinase 2 (Homo sapiens), sequence (Q12851 whole entry): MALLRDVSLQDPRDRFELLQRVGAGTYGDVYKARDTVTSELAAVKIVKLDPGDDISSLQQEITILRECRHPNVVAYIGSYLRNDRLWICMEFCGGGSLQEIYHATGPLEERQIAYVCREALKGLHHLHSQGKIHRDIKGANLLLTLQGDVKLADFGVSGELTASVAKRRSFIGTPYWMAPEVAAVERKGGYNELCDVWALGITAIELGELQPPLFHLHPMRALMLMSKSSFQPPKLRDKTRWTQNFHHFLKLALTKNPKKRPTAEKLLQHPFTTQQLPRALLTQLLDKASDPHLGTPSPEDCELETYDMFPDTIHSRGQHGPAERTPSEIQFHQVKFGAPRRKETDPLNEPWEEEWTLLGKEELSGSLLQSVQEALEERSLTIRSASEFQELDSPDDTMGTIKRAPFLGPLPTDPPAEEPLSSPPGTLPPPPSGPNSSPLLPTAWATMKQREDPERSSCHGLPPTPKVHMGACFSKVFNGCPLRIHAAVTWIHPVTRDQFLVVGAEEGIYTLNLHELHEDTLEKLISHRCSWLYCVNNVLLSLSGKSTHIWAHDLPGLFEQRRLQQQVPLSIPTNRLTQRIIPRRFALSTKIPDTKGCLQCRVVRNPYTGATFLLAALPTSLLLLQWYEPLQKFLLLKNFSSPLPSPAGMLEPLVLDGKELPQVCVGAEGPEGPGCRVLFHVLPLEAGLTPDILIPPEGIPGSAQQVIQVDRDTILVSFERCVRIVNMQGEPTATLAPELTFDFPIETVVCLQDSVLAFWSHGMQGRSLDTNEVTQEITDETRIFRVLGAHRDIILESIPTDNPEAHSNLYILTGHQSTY

CC(C)CC(=O)N1CCc2nc(-c3ccc(Br)cc3)nc(N(C)Cc3ccccc3)c2C1 [THPP-1-NC]
inactive: residual activity [1] 100% | residual activity [2] 82% | residual activity [3] 100% | residual activity [4] 83% | residual activity [5] 92% | residual activity [6] 100% | residual activity [7] 99% | residual activity [8] 100% | residual activity [9] 100% | residual activity [10] 73% | residual activity [11] 100% | residual activity [12] 78% | residual activity [13] 91% | inhibition [14] 22.6% | residual activity [15] 65% | residual activity [16] 75% | residual activity [17] 78% | inhibition [18] 13.5% | residual activity [19] 100% | residual activity [20] 98% | residual activity [21] 96% | residual activity [22] 100% | residual activity [23] 88% | residual activity [24] 84% | residual activity [25] 74% | residual activity [26] 89% | residual activity [27] 90% | residual activity [28] 100% | residual activity [29] 100% | residual activity [30] 94% | residual activity [31] 100% | residual activity [32] 98% | residual activity [33] 100% | residual activity [34] 100% | residual activity [35] 100% | residual activity [36] 62% | residual activity [37] 96% | residual activity [38] 100% | residual activity [39] 100% | residual activity [40] 100% | inhibition [41] 38% | residual activity [42] 84% | residual activity [43] 100% | residual activity [44] 92% | residual activity [45] 98%

COCCOc1nc(-c2ccc(Cl)nc2)nc2c1CN(C(=O)c1ncn3ccccc13)CC2 [THPP-1]
inactive: residual activity [1] 100% | residual activity [2] 73% | residual activity [3] 100% | residual activity [4] 82% | residual activity [5] 100% | residual activity [6] 100% | residual activity [7] 100% | residual activity [8] 100% | residual activity [9] 100% | residual activity [10] 65% | residual activity [11] 100% | residual activity [12] 79% | residual activity [13] 100% | inhibition [14] 8.09% | residual activity [15] 77% | residual activity [16] 73% | residual activity [17] 78% | inhibition [18] 3.95% | residual activity [19] 100% | residual activity [20] 100% | residual activity [21] 100% | residual activity [22] 100% | residual activity [23] 73% | residual activity [24] 100% | residual activity [25] 87% | residual activity [26] 82% | residual activity [27] 97% | residual activity [28] 100% | residual activity [29] 100% | residual activity [30] 93% | residual activity [31] 85% | residual activity [32] 75% | residual activity [33] 100% | residual activity [34] 100% | residual activity [35] 100% | residual activity [36] 63% | residual activity [37] 79% | residual activity [38] 100% | residual activity [39] 100% | residual activity [40] 100% | inhibition [41] -1.56% | residual activity [42] 76% | residual activity [43] 100% | residual activity [44] 100% | residual activity [45] 93%
